Experimental data taken from ChEMBL document CHEMBL1201862, “PubChem BioAssay data set” (2004).
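Cultured in 96-well plates, cells were exposed to test compound for 48 hours across five concentrations. At the GI50, growth is halved.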 Calls of active or inactive are those of the source. No stated cut-off is given here; in the data, active = GI50 up to about 1.1 µM and inactive = higher.

What was measured:
Assay in all cases: inhibition of tumour cell growth, NCI panel, 48 h
OVCAR-5 = system: OVCAR-5
U-251 = system: U-251
M14 = system: M14
CCRF-CEM = system: CCRF-CEM
HOP-92 = system: HOP-92
BT-549 = system: BT-549
MDA-MB-435 = system: MDA-MB-435
A549 = system: A549
NCI-H522 = system: NCI-H522
K562 = system: K562
Malme-3M = system: Malme-3M
NCI/ADR-RES = system: NCI/ADR-RES
RXF 393 = system: RXF 393
T47D = system: T47D
HCT-15 = system: HCT-15
Hs-578T = system: Hs-578T
TK-10 = system: TK-10
A498 = system: A498
OVCAR-4 = system: OVCAR-4
SNB-19 = system: SNB-19

Structure (SMILES) | GI50 (OVCAR-5) | GI50 (U-251) | GI50 (M14) | GI50 (CCRF-CEM) | GI50 (HOP-92) | GI50 (BT-549) | GI50 (MDA-MB-435) | GI50 (A549) | GI50 (NCI-H522) | GI50 (K562) | GI50 (Malme-3M) | GI50 (NCI/ADR-RES) | GI50 (RXF 393) | GI50 (T47D) | GI50 (HCT-15) [µM] | GI50 (Hs-578T) | GI50 (TK-10) | GI50 (A498) | GI50 (OVCAR-4) | GI50 (SNB-19)
CCCCC/C=C1\CC(CO)(COC(=O)CC(C(C)C)C(C)C)OC1=O (stereo not given) | 12.7 µM (inactive) | 14.5 µM (inactive) | 14.6 µM (inactive) | 11.8 µM (inactive) | 3.66 µM (inactive) | 16.4 µM (inactive) | 8.59 µM (inactive) | 8.89 µM (inactive) | 17.8 µM (inactive) | 6.84 µM (inactive) | 15.3 µM (inactive) | 20.3 µM (inactive) | 17.9 µM (inactive) | 23.1 µM (inactive) | 19.9 | 4.62 µM (inactive) | 14.2 µM (inactive) | 15.8 µM (inactive) | 30 µM (inactive) | 15 µM (inactive)
NS(=O)(=O)OCCCCCCCOS(N)(=O)=O | 408 µM (inactive) | 198 µM (inactive) | 187 µM (inactive) | 46.8 µM (inactive) | 215 µM (inactive) | 151 µM (inactive) | 410 µM (inactive) | 109 µM (inactive) | 259 µM (inactive) | 347 µM (inactive) | 437 µM (inactive) | 273 µM (inactive) | 289 µM (inactive) | 246 µM (inactive) | 349 | 527 µM (inactive) | 649 µM (inactive) | 377 µM (inactive) | 409 µM (inactive) | 275 µM (inactive)
CN(CCNC(=O)c1cn(C)c2c1ccc1cc(Cl)ccc12)CCNC(=O)c1cn(C)c2c1ccc1cc(Cl)ccc12 | 1.97 µM (inactive) | 7.59 µM (inactive) | 1.59 µM (inactive) | 5.74 µM (inactive) | 5.85 µM (inactive) | 3.43 µM (inactive) | 1.44 µM (inactive) | 1.92 µM (inactive) | 1.85 µM (inactive) | 5.96 µM (inactive) | 2.21 µM (inactive) | 2.05 µM (inactive) | 1.57 µM (inactive) | 2.13 µM (inactive) | 1.78 | 1.94 µM (inactive) | 7.13 µM (inactive) | 3.71 µM (inactive) | 1.66 µM (inactive) | 1.83 µM (inactive)
COC(=O)c1c(CC(Cc2ccc3c(c2)CCCC3)C(=O)O)ccc2c1CCCC2 (stereo not given) | 43.8 µM (inactive) | 37.2 µM (inactive) | 42.9 µM (inactive) | 45.4 µM (inactive) | 25.2 µM (inactive) | 40.9 µM (inactive) | 34.2 µM (inactive) | 34.1 µM (inactive) | 11.6 µM (inactive) | 34.7 µM (inactive) | 31.3 µM (inactive) | 17.9 µM (inactive) | 35.2 µM (inactive) | 33.4 µM (inactive) | 18 | 25.8 µM (inactive) | 36.1 µM (inactive) | 25 µM (inactive) | 34.5 µM (inactive) | 40.7 µM (inactive)
CCCCCCCCCCCCCCCCS(=O)(=O)c1ccc(NN)cc1 | > 10 µM (inactive) | 6.19 µM (inactive) | > 10 µM (inactive) | 1.63 µM (inactive) | 7.1 µM (inactive) | > 10 µM (inactive) | > 10 µM (inactive) | 5.27 µM (inactive) | 5.9 µM (inactive) | 2.71 µM (inactive) | > 10 µM (inactive) | > 10 µM (inactive) | > 10 µM (inactive) | > 10 µM (inactive) | > 10 | 7.96 µM (inactive) | > 10 µM (inactive) | > 10 µM (inactive) | 8.17 µM (inactive) | > 10 µM (inactive)
CN(C)/C=N/CCN1CCOCC1 | > 100 µM (inactive) | > 100 µM (inactive) | > 100 µM (inactive) | > 100 µM (inactive) | > 100 µM (inactive) | > 100 µM (inactive) | > 100 µM (inactive) | > 100 µM (inactive) | > 100 µM (inactive) | > 100 µM (inactive) | > 100 µM (inactive) | > 100 µM (inactive) | > 100 µM (inactive) | > 100 µM (inactive) | > 100 | > 100 µM (inactive) | > 100 µM (inactive) | > 100 µM (inactive) | > 100 µM (inactive) | > 100 µM (inactive)
